Measured values from US4035566A, “N-trifluoroacetyladriamycin-14-alkanoates and therapeutic compositions containing same” (Sidney Farber Cancer Institute, Inc., priority 1975, dated 1977).
pIC50: −log10 of the molar value. Read-outs that look alike come from different tables or passages of the source.

Key:
[1] = tested on: CCRF-CEM cell line; experiment: in vitro growth inhibition of CCRF-CEM cell line in culture (Foley and Lazarus procedure); assay type: cell-based, child; details: Homo sapiens, read-out: ID50 (dose required to inhibit growth of the cultures by 50% relative to control cultures)
Experimental: (§1) The toxicity and therapeutic effectiveness of the new compounds and active agents of the present invention are shown by in vitro assays and by in vivo evaluations in mice. The in vitro assays measure the growth inhibiting activity of the materials against the CCRF-CEM cell line in culture. The cell line was derived from the peripheral blood and a child with lymphoblastic leukemia as described by Foley et al., Cancer, Volume 18, page 522 et seq. (1965), and the assays were carried out by the procedure of Foley and Lazarus, Biochem. Pharmacol., Volume 16, pages 659 et seq. (1967), the results being reported in terms of the dose in micromoles per liter required to inhibit growth of the cultures by 50% relative to control cultures to which no drug had been added (ID50). The in vivo evaluations were made by preparing a 0.2 to 0.7% by weight solution of the active agent in a 10% by volume aqueous solution of polyoxyethylene sorbitan monooleate (polysorbate 80) as a carrier and injecting the dosage intraperitoneally. The evaluations were made of the antitumor activity against the murine P 388 and murine L 1210 leukemias in BDF1 male mice according to standard National Cancer Institute protocols as set forth by Geran et al., Cancer Chemotherap. Rep., Part 3, Volume 3, pages 1 et seq. (1972), except that a qd 1-4 schedule was used in place of qd 1-9 in order to conserve materials. Evaluations were also made of the antitumor activity against the Ridgway osteogenic sarcoma, a solid tumor, in AKD2 /F1 mice, according to the procedures described in the report by G. J. D'Angio, C. L. Maddock, S. Farber, and B. L. Brown, Cancer Research, 25, 1002-1007 (1965).
The following table summarizes the inhibitory activity of various N-trifluoroacetyladriamycin-14-alkanoates as well as other materials when tested in vitro as described in the paragraphs preceding Example 1 above.

[2] = tested on: murine P 388 leukemia; experiment: in vivo antitumor activity against murine P 388 leukemia (Geran et al. procedure); set-up: species or system BDF1 male mice; details: Table II, i.p., qd 1-4; for Survivors 60da: optimal dose mg/kg: acetate 40, isobutyrate 40, valerate 40, caproate 60, caprylate 60; for MILS (Median Increase in Life Span Compared with Untreated Mice) / Survivors 30da: optimal dose mg/kg: adriamycin 4.0, daunomycin 2.0, acetate 40, isobutyrate 40, valerate 40, caproate 60, caprylate 60
Experimental: as §1
(§2) Optimal dosage was determined by testing doses which were at several multiples of 10 milligrams/kilogram of body weight and the optimal dose was used for further tests. Some effectiveness can be observed at dosages ranging from 20 to 70 milligrams/kilogram of body weight, depending upon the particular ester employed.
The following table summarizes the in vivo antitumor activity against murine P 388 leukemia tested by the Geran et al. procedure as exampled above: […]

[3] = tested on: mice; experiment: toxicity in mice in the in vivo antitumor tests; details: P 388 test conditions, qd 1-4; for toxicity: dose of 60 mg/kg i.p.
Experimental: as §1, §2

[4] = tested on: murine L 1210 leukemia; details: background statement; cited from earlier work
[5] = tested on: malignant tumors; details: cited from earlier work; for clinical effectiveness: certain malignant tumors, e.g. induction of remission in acute leukemia
[6] = tested on: murine L 1210 leukemia; experiment: in vivo antitumor activity against murine L 1210 leukemia (Geran et al. procedure); set-up: species or system BDF1 male mice; details: for MILS / Survivors 30da / Survivors 60da: Table III, qd 1-4
Experimental: as §1, §2
The murine L 1210 leukemia is generally poorly responsive to chemotherapy. […] The following table summarizes the results of three separate in vivo tests of N-trifluoroacetyladriamycin-14-valerate against murine L 1210 leukemia following the Geran et al. procedure as described above: […]

[7] = tested on: murine Ridgway osteogenic sarcoma; experiment: in vivo antitumor activity against murine Ridgway osteogenic sarcoma (D'Angio et al. procedure); set-up: species or system AKD2 /F1 mice; details: for MILS / Median Survival: Table IV, days 16-19
Experimental: as §1
The following table summarizes the in vivo antitumor activity of N-trifluoroacetyladriamycin-14-valerate against the murine Ridgway osteogenic sarcoma following the D'Angio et at. procedure as described above:
*Therapy was started on day 16 when the intramuscularly implanted tumor was palpable. Seven mice were used in each group, and all compounds were administered intraperitoneally.
Complete remission in this system is defined as the absence of palpable tumor.

[8] = toxicity in mice in the in vivo antitumor tests; details: mouse, in vivo, ip; L1210 test, qd 1-4 schedule; read-out: doses above which toxicity displayed
Experimental: as §1, §2

[9] = Ridgway tumor, complete remission = absence of palpable tumor
[10] = L1210 leukemia, same conditions as Table III

CCCCCCCC(=O)OCC(=O)[C@]1(O)Cc2c(O)c3c(c(O)c2[C@@H](O[C@H]2C[C@H](NC(=O)C(F)(F)F)[C@H](O)[C@H](C)O2)C1)C(=O)c1c(OC)cccc1C3=O [Caprylate, N-Trifluoroacetyladriamycin-14-caprylate]
pIC50 ([1]; CCRF-CEM cells, Table I): 6.44 | Survivors 60da [2]: 1/5 | MILS (Median Increase in Life Span Compared with Untreated Mice) [2]: 243% | Survivors 30da [2]: 5/5 | toxicity [3]: no toxicity was observed

CCC(=O)OCC(=O)[C@]1(O)Cc2c(O)c3c(c(O)c2[C@@H](O[C@H]2C[C@H](NC(=O)C(F)(F)F)[C@H](O)[C@H](C)O2)C1)C(=O)c1c(OC)cccc1C3=O [Propionate, N-Trifluoroacetyladriamycin-14-propionate]
pIC50 ([1]; CCRF-CEM cells, Table I): 6.52

COc1cccc2c1C(=O)c1c(O)c3c(c(O)c1C2=O)C[C@@](O)(C(=O)COC(=O)C(C)C)C[C@@H]3O[C@H]1C[C@H](NC(=O)C(F)(F)F)[C@H](O)[C@H](C)O1 [Isobutyrate, N-Trifluoroacetyladriamycin-14-isobutyrate]
pIC50 ([1]; CCRF-CEM cells, Table I): 6.55 | Survivors 60da [2]: 1/5 | MILS (Median Increase in Life Span Compared with Untreated Mice) [2]: 150% | Survivors 30da [2]: 3/5

CCCCCCCCCC(=O)OCC(=O)[C@]1(O)Cc2c(O)c3c(c(O)c2[C@@H](O[C@H]2C[C@H](NC(=O)C(F)(F)F)[C@H](O)[C@H](C)O2)C1)C(=O)c1c(OC)cccc1C3=O [Caprate, N-Trifluoroacetyladriamycin-14-caprate]
pIC50 ([1]; CCRF-CEM cells, Table I): 6.41

COc1cccc2c1C(=O)c1c(O)c3c(c(O)c1C2=O)C[C@@](O)(C(=O)COC(=O)C(C)(C)C)C[C@@H]3O[C@H]1C[C@H](NC(=O)C(F)(F)F)[C@H](O)[C@H](C)O1 [Pivalate, N-Trifluoroacetyladriamycin-14-pivalate]
pIC50 ([1]; CCRF-CEM cells, Table I): 6.23

COc1cccc2c1C(=O)c1c(O)c3c(c(O)c1C2=O)C[C@@](O)(C(C)=O)C[C@@H]3O[C@H]1C[C@H](N)[C@H](O)[C@H](C)O1 [Daunomycin, reference compound]
pIC50 ([1]; CCRF-CEM): 7.46 | MILS (Median Increase in Life Span Compared with Untreated Mice) [2]: 91% | Survivors 30da [2]: 0/6 | effectiveness in prolonging survival of mice bearing L 1210 leukemia (general statement) [4]: much less so | clinical effectiveness [5]: effective clinically against certain malignant tumors | toxicities in chemotherapy ([5]; in vivo): a variety of toxicities which limit the effectiveness of the compounds

CCCCCC(=O)OCC(=O)[C@]1(O)Cc2c(O)c3c(c(O)c2[C@@H](O[C@H]2C[C@H](NC(=O)C(F)(F)F)[C@H](O)[C@H](C)O2)C1)C(=O)c1c(OC)cccc1C3=O [Caproate, N-Trifluoroacetyladriamycin-14-caproate]
pIC50 ([1]; CCRF-CEM cells, Table I): 6.48 | Survivors 60da [2]: 1/5 | MILS (Median Increase in Life Span Compared with Untreated Mice) [2]: 271% | Survivors 30da [2]: 5/5 | toxicity [3]: no toxicity was observed

COc1cccc2c1C(=O)c1c(O)c3c(c(O)c1C2=O)C[C@@](O)(C(=O)CO)C[C@@H]3O[C@H]1C[C@H](N)[C@H](O)[C@H](C)O1 [Adriamycin]
pIC50 ([1]; CCRF-CEM): 7.18 | MILS (Median Increase in Life Span Compared with Untreated Mice) [2]: 132% | Survivors 30da [2]: 0/6 | MILS ([6]; first test, 4.0 mg/kg i.p.): 45% | Survivors 30da ([6]; first test, 4.0 mg/kg i.p.): 0/5 | MILS ([6]; second test, 4.0 mg/kg i.p.): 54% | Survivors 30da ([6]; second test, 4.0 mg/kg i.p.): 1/5 | Survivors 60da ([6]; second test, 4.0 mg/kg i.p.): 0/5 | MILS ([6]; third test, 4.0 mg/kg i.p.): 42% | Survivors 30da ([6]; third test, 4.0 mg/kg i.p.): 0/7 | MILS ([7]; 3.0 mg/kg i.p.): 40% | Median Survival ([7]; 3.0 mg/kg i.p.): 51.0 days | dose at and above which toxic ([3]; i.p.): ≥ 4 mg/kg | effectiveness in prolonging survival of mice bearing L 1210 leukemia (general statement) [4]: only moderately effective | clinical effectiveness [5]: effective clinically against certain malignant tumors | toxicities in chemotherapy ([5]; limiting long-term use): a variety of toxicities which limit the effectiveness of the compounds | clinical efficacy against certain solid tumors ([5]; solid tumors): has shown clinical efficacy against certain solid tumors

CCCCC(=O)OCC(=O)[C@]1(O)Cc2c(O)c3c(c(O)c2[C@@H](O[C@H]2C[C@H](NC(=O)C(F)(F)F)[C@H](O)[C@H](C)O2)C1)C(=O)c1c(OC)cccc1C3=O [N-Trifluoroacetyladriamycin-14-valerate]
pIC50 ([1]; CCRF-CEM cells, Table I): 6.62 | Survivors 60da [2]: 3/5 | MILS (Median Increase in Life Span Compared with Untreated Mice) [2]: 429% | Survivors 30da [2]: 4/5 | MILS ([6]; first test, 60.0 mg/kg i.p.): > 445% | Survivors 30da ([6]; first test, 60.0 mg/kg i.p.): 4/5 | Survivors 60da ([6]; first test, 60.0 mg/kg i.p.): 4/5 | MILS ([6]; first test, 70.0 mg/kg i.p.): > 445% | Survivors 30da ([6]; first test, 70.0 mg/kg i.p.): 4/5 | Survivors 60da ([6]; first test, 70.0 mg/kg i.p.): 4/5 | MILS ([6]; second test, 50.0 mg/kg i.p.): > 445% | Survivors 30da ([6]; second test, 50.0 mg/kg i.p.): 4/7 | Survivors 60da ([6]; second test, 50.0 mg/kg i.p.): 4/7 | MILS ([6]; second test, 60.0 mg/kg i.p.): > 445% | Survivors 30da ([6]; second test, 60.0 mg/kg i.p.): 3/6 | Survivors 60da ([6]; second test, 60.0 mg/kg i.p.): 3/6 | MILS ([6]; third test, 50.0 mg/kg i.p.): > 400% | Survivors 30da ([6]; third test, 50.0 mg/kg i.p.): 5/7 | Survivors 60da ([6]; third test, 50.0 mg/kg i.p.): 5/7 | MILS ([6]; third test, 60.0 mg/kg i.p.): > 400% | Survivors 30da ([6]; third test, 60.0 mg/kg i.p.): 6/7 | Survivors 60da ([6]; third test, 60.0 mg/kg i.p.): 6/7 | gross number of complete remissions compared with adriamycin [7, 9]: the gross number of complete remissions was greater | median duration of complete remission compared with adriamycin [7, 9]: the median duration of complete remission was longer | MILS ([7]; 50.0 mg/kg i.p.): 130% | Median Survival ([7]; 50.0 mg/kg i.p.): 84.0 days | MILS ([7]; 60.0 mg/kg i.p.): 122% | Median Survival ([7]; 60.0 mg/kg i.p.): 81.0 days

COc1cccc2c1C(=O)c1c(O)c3c(c(O)c1C2=O)C[C@@](O)(C(=O)COC(C)=O)C[C@@H]3O[C@H]1C[C@H](NC(=O)C(F)(F)F)[C@H](O)[C@H](C)O1 [Acetate, N-trifluoroacetyladriamycin-14-acetate]
pIC50 ([1]; CCRF-CEM cells, Table I): 6.70 | Survivors 60da [2]: 0/5 | MILS (Median Increase in Life Span Compared with Untreated Mice) [2]: 173% | Survivors 30da [2]: 2/5

CCCCC(=O)OCC(=O)[C@]1(O)Cc2c(O)c3c(c(O)c2[C@@H](O[C@H]2C[C@H](N)[C@H](O)[C@H](C)O2)C1)C(=O)c1c(OC)cccc1C3=O [adriamycin-14-valerate, reference compound]
effectiveness in prolonging survival of tumor-bearing mice compared with daunomycin [6, 10]: no more effective than daunomycin | survivors after 30 days [6, 10]: no survivors after 30 days | MTD [8]: > 4 mg/kg
